Measured values reported in patent US6790957B2, “Triazole derivatives useful in therapy” (Pfizer, Inc., priority 1996, dated 2004).
Read-outs that look alike come from different tables or passages of the source.

Test: Aqueous solubility of phosphate prodrugs compared with parent compounds
Type: physicochemical
Details: compounds of Examples in the form of their disodium salts
[1] = water (aqueous), read-out: Solubility

| solubility [1] [mg/mL] | solubility [mg/mL] | SMILES |
| --- | --- | --- |
| > 150 | – | O=P(O)(O)OC(Cn1cncn1)(Cn1cncn1)c1ccc(F)cc1F [Example 1, 2-(2,4-Difluorophenyl)-1,3-bis(1H-1,2,4-triazol-1-yl)-2-propyl Dihydrogen Phosphate] |
| > 150 | – | C[C@@H](c1ncncc1F)[C@@](Cn1cncn1)(OP(=O)(O)O)c1ccc(F)cc1F [Example 3, (2R,3S)-2-(2,4-Difluorophenyl)-3-(5-fluoro-4-pyrimidinyl)-1-(1H-1,2,4-triazol-1-yl)-2-butyl dihydrogen phosphate] |
| – | >50 | C[C@@H](c1ccc(-c2ccnn2C)cc1)[C@@](Cn1cncn1)(OP(=O)([O-])[O-])c1ccc(F)cc1F.[Na+].[Na+] [Example 8, (2R,3S)-2-(2,4-Difluorophenyl)-3-[4-(1-methylpyrazol-5-yl)phenyl]-1-(1,2,4-triazol-1-yl)-2-butyl disodium phosphate] |
